The source of these data is a melting point compilation (Tetko et al.).

Broadly, the melting point is the temperature of the solid-liquid transition. For the molecule `Cc1nc2c(C#N)cnn2c(O)c1CC(=O)O`, the melting point lay within 275 to 277 °C.

`Cc1ccc(-c2csc(CC(N)=S)n2)cc1` registered a melting point of 117 to 119 °C.

For the molecule `Cc1cc(COc2ccc(C(=O)O)cc2Br)on1`, the melting point was in the range of 209 to 211 °C.

On to `Nc1ccc(Sc2ccccc2)c(Cl)c1`, for which the melting point fell in the range of 55 to 57 °C.

In turn, `Nc1ccc(-n2cncn2)c(Cl)c1` displayed a melting point of 131 to 133 °C.

The molecule `Cc1ccc(S(=O)(=O)Nc2cccc(C(F)(F)F)c2)cc1N` displayed a melting point of 116 to 118 °C.

In the case of `COc1ccc(N2CCC(N)CC2)cc1`, the melting point was in the range of 50 to 52 °C.

`Cc1nnc2n1CC(CO)CC2` (stereo not given) returned a melting point of 158 to 160 °C.

Molecule `O=C(NCC1CCCC1)n1ccnc1` displayed a melting point of 61 to 63 °C.

`CC1(c2ccc(C#N)cc2)NC(=O)NC1=O` (stereo not given) had a melting point of 209 to 211 °C.

`Cc1ccc(C(=O)N2CCCC(C(=O)O)C2)cc1` (stereo not given) showed a melting point of 146 to 148 °C.

With `O=C(CCl)c1ccc(O)cc1O`, the melting point lay within 108 to 110 °C.

`ON=Cc1ccc(N2CCOCC2)cc1` showed a melting point of 186 to 188 °C.

Take `Nc1ccnn1CCc1ccccc1`: the melting point lay within 67 to 69 °C.

The molecule `Cc1ccc2c(Cl)c(C(=O)O)sc2c1` registered a melting point of 271 to 273 °C.

Take `CC(CC(=O)O)c1ccc(C(F)(F)F)cc1` (stereo not given): the melting point was 88 to 90 °C.

As for `CC(C)(F)c1nc(N)nc(Cl)n1`, the melting point was in the range of 169 to 171 °C.

For `CC1=NS(=O)(=O)NC(C)=C1CC(=O)O`, the melting point was 185 to 187 °C.

Molecule `CC(C)(C)OC(=O)Nc1ccc(Cc2nc(C(=O)O)cs2)cc1` had a melting point of 164 to 166 °C.

Molecule `NS(=O)(=O)c1ccc(-n2cccn2)c(F)c1` showed a melting point of 190 to 192 °C.

`COc1ccccc1SCC(=O)O` had a melting point of 99 to 101 °C.

For `N#Cc1ccc(C=O)c(F)c1`, the melting point lay within 79 to 81 °C.

`Cc1cccc(C(=O)NC(CCS(C)(=O)=O)C(=O)O)c1` (stereo not given) showed a melting point of 235 to 239 °C.

For `O=C(O)c1cc(C2CC2)nc2c1cnn2Cc1ccncc1`, the melting point lay within 238 to 240 °C.

`Nc1[nH]ncc1-c1ccc2c(c1)OCO2`: the melting point is 166 to 168 °C.

The molecule `NCc1ccc(NC(=O)c2ccc(F)cc2)cc1` yielded a melting point of 135 to 137 °C.

For the molecule `COc1cc(C=C2CCCc3c2nc2ccccc2c3C(=O)O)cc(OC)c1OC`, the melting point was in the range of 249 to 251 °C.

On to `NS(=O)(=O)c1cccc(I)c1`, for which the melting point was in the range of 148 to 150 °C.

On to `NCCNS(=O)(=O)c1cccc(Cl)c1`, for which the melting point is 84 to 86 °C.

Molecule `CCc1ccc(C(=O)N2CCC(C(=O)O)CC2)o1` came in with a melting point of 112 to 114 °C.

`O=C(O)c1ccc(NS(=O)(=O)C=Cc2ccccc2)cc1` had a melting point of 254 to 256 °C.

`Cc1cccc(NC(=O)Nc2cccc3c2NCCC3)c1` came in with a melting point of 168 to 170 °C.

With `O=C(O)c1cc(S(=O)(=O)NCCCN2CCCC2=O)ccc1Cl`, the melting point fell in the range of 98 to 100 °C.

Regarding `COc1ccc(S)c2ccccc12`, the melting point is 142 to 144 °C.

Take `N#Cc1cccc(NC(=O)c2ccccc2F)c1`: the melting point was in the range of 132 to 134 °C.

On to `COc1ccccc1C(=O)c1ccccc1Cl`, for which the melting point lay within 59 to 61 °C.

`O=S1(=O)CCNC2CCCCC21` (stereo not given) yielded a melting point of 75 to 77 °C.

Molecule `O=C(O)/C=C/c1cc(Cl)c2c(c1)OCCCO2` registered a melting point of 178 to 180 °C.

The molecule `O=C(O)c1ccc(C(F)(F)F)[nH]c1=O` came in with a melting point of 161 to 163 °C.

With `COc1cc(C=O)ccc1OCC(F)(F)F`, the melting point is 66 to 68 °C.

The molecule `Nc1cc(-c2ccco2)nn1-c1cccc([N+](=O)[O-])c1` had a melting point of 185 to 187 °C.

`Nc1nnc(-c2ccc(Br)c(F)c2)s1` had a melting point of 219 to 221 °C.

`CC(C)Oc1ccccc1CC(=O)O` came in with a melting point of 92 to 94 °C.

Take `Clc1ccc(Cc2nn[nH]n2)cc1Cl`: the melting point lay in the range of 153 to 155 °C.

The molecule `O=C(CBr)c1ccc(N2CCCC2=O)cc1` displayed a melting point of 130 to 132 °C.

`Cc1ccc2ncnc(Cl)c2c1`: the melting point is 105 to 107 °C.

`COc1ccc(C#N)cc1CBr` gave a melting point of 123 to 125 °C.

Molecule `COC(=O)N(C)c1ccc(O)cc1` came in with a melting point of 99 to 101 °C.

`O=C(O)Cc1ccc(S(=O)(=O)CCO)cc1` displayed a melting point of 99 to 101 °C.

In turn, `Cc1cc2ccc(Cl)cc2nc1NN` displayed a melting point of 169 to 171 °C.

Molecule `CC(C)(C(N)=S)c1ccccc1` yielded a melting point of 99 to 101 °C.

`N#Cc1cnc2ccccc2c1N` gave a melting point of 274 to 276 °C.

For `COc1ccc(C(=O)O)cc1S(=O)(=O)NC(C)(C)C`, the melting point fell in the range of 218 to 220 °C.

For the molecule `CC(=O)Oc1ccc(C(=O)Nc2ccccc2)cc1`, the melting point fell in the range of 161 to 163 °C.

Consider `CN(C)S(=O)(=O)c1ccc(/C=C/C(=O)O)cc1`, for which the melting point is 268 to 270 °C.

Molecule `N#CCC1C(=O)Nc2ccccc21` (stereo not given) showed a melting point of 161 to 163 °C.

With `CC(N)=NO`, the melting point was 118 to 120 °C.

Consider `CCOc1cc(C=O)cc(Br)c1OC(F)F`, for which the melting point lay within 94 to 96 °C.

`N#CCc1cc2ccccc2nc1Cl` yielded a melting point of 128 to 130 °C.

Regarding `CS(=O)(=O)N1CCc2c(N)cccc2C1`, the melting point was in the range of 155 to 157 °C.

In turn, `CC(C)(C)OC(=O)Nc1cnsn1` registered a melting point of 93 to 95 °C.

`NC(=NO)c1ccc(Br)o1` registered a melting point of 129 to 131 °C.

For the molecule `CCOCCS(N)(=O)=O`, the melting point is 30 to 32 °C.

`CN(C)S(=O)(=O)c1ccc2[nH]c(=O)oc2c1`: the melting point fell in the range of 202 to 204 °C.

On to `O=Cc1cc(F)cc2cccnc12`, for which the melting point lay in the range of 114 to 116 °C.

With `Cc1ccc(N)c(Cl)c1Cl`, the melting point was 45 to 47 °C.

`Cc1ccc2cccc(S(=O)(=O)Cl)c2n1` displayed a melting point of 113 to 115 °C.

For the molecule `CNS(=O)(=O)Cc1ccccc1CN`, the melting point was 130 to 132 °C.

`O=c1[nH]c(CCl)nc2cc(-c3ccc(Cl)cc3)sc12` yielded a melting point of 217 to 219 °C.

On to `N#CCc1nc2cc(F)ccc2s1`, for which the melting point is 133 to 135 °C.

As to `O=c1cc(CCl)c2ccc(Br)cc2o1`, the melting point fell in the range of 160 to 162 °C.

Molecule `COC(=O)c1cn(CC(=O)O)nn1` yielded a melting point of 176 to 178 °C.

For the molecule `O=S(=O)(Cl)Cc1ccc(Cl)nc1`, the melting point was in the range of 59 to 61 °C.

The molecule `COc1cccc(C(=O)O)c1F` showed a melting point of 157 to 160 °C.

For the molecule `O=S(=O)(Nc1cc(F)cc(F)c1)c1ccc(Cl)nc1`, the melting point was in the range of 199 to 201 °C.

Take `O=C1C(Br)CCCN1c1ccccc1F` (stereo not given): the melting point was 54 to 56 °C.

Turning to `O=C(Nc1cc(Cl)ccc1Cl)OCC(F)(F)F`, the melting point lay in the range of 110 to 112 °C.

In turn, `CC(C)(C)OC(=O)NC(CC#N)c1ccccc1` (stereo not given) came in with a melting point of 104 to 106 °C.

Molecule `CNc1cccnc1N1CCCC1` displayed a melting point of 105 to 107 °C.

`O=C(CC1CCCCC1)Nc1cccc2c1CCCN2`: the melting point fell in the range of 192 to 194 °C.

The molecule `CCN(C(=O)OC(C)(C)C)C(C(N)=S)c1cccnc1` (stereo not given) showed a melting point of 139 to 141 °C.

The molecule `Cc1cccc(NC2CCNCC2)n1` returned a melting point of 85 to 87 °C.

Molecule `COc1ccc(S(=O)(=O)NCC(=O)O)cc1` showed a melting point of 131 to 133 °C.

`CC(C)(C)C(=O)c1ccsc1N` came in with a melting point of 101 to 103 °C.

Regarding `Nc1nc(Cl)c(C=O)c(N2CCCC2)n1`, the melting point is 176 to 178 °C.

`N#Cc1cnc2ccccc2c1OCCO` registered a melting point of 172 to 174 °C.

As to `Nc1nnc(-c2ccc(Br)cc2F)s1`, the melting point is 194 to 196 °C.

With `COCc1ccsc1C(=O)O`, the melting point fell in the range of 119 to 121 °C.

The molecule `CC(Cl)C(=O)c1c[nH]c2ncccc12` (stereo not given) registered a melting point of 162 to 164 °C.

`CC1=CC(=O)N(c2ccccc2C(=O)O)C1=O` came in with a melting point of 163 to 165 °C.

Consider `COc1ccc(C2(C)NC(=O)NC2=O)cc1OC` (stereo not given), for which the melting point lay within 177 to 179 °C.

Regarding `C#CCN1CCC[C@H]1C(=O)O`, the melting point was 151 to 153 °C.

As for `CNS(=O)(=O)c1ccc(Cl)c(C(=O)O)c1`, the melting point lay within 171 to 173 °C.

Take `CSc1ccc(C(=O)CCC(=O)O)cc1`: the melting point was in the range of 152 to 154 °C.

The molecule `OCc1cn(-c2ccccc2)nc1-c1cccs1` registered a melting point of 115 to 117 °C.

Molecule `CS(=O)(=O)Nc1cccc(CN)c1` showed a melting point of 126 to 128 °C.

In turn, `Cc1csc2nc(CO)cc(=O)n12` came in with a melting point of 154 to 156 °C.

In the case of `CC(C)C(=O)NC(C)c1ccc(S(=O)(=O)Cl)s1` (stereo not given), the melting point was in the range of 68 to 70 °C.

Take `Cc1nn(-c2ccc(F)cc2)c(Cl)c1CO`: the melting point fell in the range of 134 to 136 °C.

The molecule `CS(=O)(=O)Nc1ccc(-c2csc(N)n2)cc1` returned a melting point of 196 to 198 °C.

`CC(=O)c1cccc(S(=O)(=O)NCC(=O)O)c1` returned a melting point of 188 to 190 °C.

Regarding `CC(C)Cn1c(S)nnc1N1CCOCC1`, the melting point was under 17 °C.

`Cc1ccc(S(=O)(=O)Nc2cc(Cl)ccc2O)cc1` showed a melting point of 189 to 191 °C.

`CC(C)NC(=O)Nc1ccccc1[N+](=O)[O-]` had a melting point of 169 to 171 °C.

`CC1=CC(=C2Nc3cc(F)ccc3N2C(C)C)C=CC1=N`: the melting point fell in the range of 136 to 138 °C.

In turn, `CN(C)CCC(=O)O` returned a melting point of 130 to 132 °C.

Regarding `O=C(CBr)c1ccc2c(c1)Cc1ccccc1-2`, the melting point lay within 141 to 143 °C.

In turn, `CC1CCN(c2ccc([N+](=O)[O-])cc2C(=O)O)CC1` displayed a melting point of 160 to 162 °C.

In turn, `O=C1NC2(CCCCC2)NC2=C1CCCC2` showed a melting point of 193 to 195 °C.

For the molecule `CCOC(=O)c1sc2nc(C)nc(Cl)c2c1C`, the melting point fell in the range of 145 to 147 °C.

`N#CCCNc1cccc(Cl)c1` displayed a melting point of 141 to 143 °C.

Turning to `CCOC(=O)c1ccc(S(=O)(=O)Cl)c(Br)c1`, the melting point was 48 to 50 °C.

Molecule `CCC(C)n1ncc2c(C(=O)O)cc(C3CC3)nc21` (stereo not given) showed a melting point of 134 to 136 °C.

`CC(C(=O)O)N1CCCCC1=O` (stereo not given) had a melting point of 134 to 136 °C.

As to `ClC1=Nc2c(cnn2-c2ccccc2)CN1`, the melting point is 189 to 191 °C.

`N#Cc1nc2ccccc2cc1Br` yielded a melting point of 139 to 141 °C.

For the molecule `O=S1(=O)CC(Cl)C(Cl)C1` (stereo not given), the melting point lay in the range of 130 to 133 °C.

Molecule `Fc1ccc(-c2csc3ncnc(S)c23)cc1` had a melting point of 244 to 246 °C.

Molecule `O=C(O)Cc1ccc([N+](=O)[O-])cc1Cl` registered a melting point of 157 to 159 °C.

Regarding `Cc1nc(N2CCNCC2)sc1C`, the melting point is 72 to 74 °C.
